Measured values published in patent US20220411362A1, “DITERPENOID COMPOUNDS THAT ACT ON PROTEIN KINASE C (PKC)” (K-Gen, Inc., priority 2019, published 2022).
Read-outs that look alike come from different tables or passages of the source.

Assay: Pharmacokinetic study, intravenous bolus injection in rats
Format: in vivo
Conditions: Sprague Dawley; for concentration at 0.0167 hour / concentration at 0.0833 hour / concentration at 0.25 hour / concentration at 0.5 hour / concentration at 1 hour / concentration at 2 hour / concentration at 4 hour / concentration at 7 hour / concentration at 24 hour / Vd: plasma, rat; for concentration at 0.0167 hour: 0.0167 hour post dose; for concentration at 0.0167 hour / concentration at 0.0833 hour / concentration at 0.25 hour / concentration at 0.5 hour / concentration at 1 hour / concentration at 2 hour / concentration at 4 hour / concentration at 7 hour / concentration at 24 hour: read-out: Concentration in Rat Plasma after Bolus Injection, Mean; for concentration at 0.0833 hour: 0.0833 hour post dose; for concentration at 0.25 hour: 0.25 hour post dose; for concentration at 0.5 hour: 0.5 hour post dose; for concentration at 1 hour: 1 hour post dose; for concentration at 2 hour: 2 hour post dose; for concentration at 4 hour: 4 hour post dose; for concentration at 7 hour: 7 hour post dose; for concentration at 24 hour: 24 hour post dose; for AUC(0-t) / C0 / MRT inf / clearance / half-life / Vd: rat plasma; for Vd: iv
Description: Pharmacokinetic (PK) studies were conducted for compounds described in this disclosure, and the PK study of K101-C1327 administered by intravenous injection in rats is given as an example. Briefly, K101-C1327 was dissolved in a pH 5 buffer solution at the concentrations of 2.0 mg/mL, and diluted to 0.04 and 0.08 mg/mL to achieve the doses of 0.1 and 0.2 mg/kg with a dosing volume of 2.5 mL/kg, respectively. The K101-C1327 dosing solutions were administered via intravenous bolus injection in 3 rats (Sprague Dawley). Plasma samples were taken at 1 minute, 5 minutes, 15 minutes, 30 minutes, 1 hour, 2 hours, 4 hours, 7 hours, and 24 hours. The drug concentrations at each time point were determined by LC-MS. The results of drug concentrations and pharmacokinetic parameters are presented in the Table 6 and Table 7, respectively, below.

Q: With CC1=C[C@H]2[C@@]3(O)[C@H](C)C[C@]4(OC(=O)[C@@H](N)CC5CCCCC5)[C@H]([C@@H]3C=C(CO)C[C@]2(O)C1=O)C4(C)C [Compound K101-C1327] as the compound, how does the concentration at 0.0167 hour (dose 0.1 mg/kg) read?
A: 216 ng/mL

Q: What about the concentration at 0.0833 hour (dose 0.1 mg/kg) of the same compound?
A: 49.2 ng/mL

Q: What about the concentration at 0.25 hour (dose 0.1 mg/kg) of the same compound?
A: 28.7 ng/mL

Q: What about the concentration at 0.5 hour (dose 0.1 mg/kg) of the same compound?
A: 19.4 ng/mL

Q: What about the concentration at 1 hour (dose 0.1 mg/kg) of the same compound?
A: 14.6 ng/mL

Q: And the concentration at 2 hour (dose 0.1 mg/kg)?
A: 5 ng/mL

Q: And the concentration at 4 hour (dose 0.1 mg/kg)?
A: 1 ng/mL

Q: What about the concentration at 7 hour (dose 0.1 mg/kg) of the same compound?
A: < 1 ng/mL

Q: And the concentration at 24 hour (dose 0.1 mg/kg)?
A: < 1 ng/mL

Q: And the concentration at 0.0167 hour (dose 0.2 mg/kg)?
A: 334 ng/mL

Q: And the concentration at 0.0833 hour (dose 0.2 mg/kg)?
A: 102 ng/mL

Q: What about the concentration at 0.25 hour (dose 0.2 mg/kg) of the same compound?
A: 65 ng/mL

Q: And the concentration at 0.5 hour (dose 0.2 mg/kg)?
A: 43.6 ng/mL

Q: And the concentration at 1 hour (dose 0.2 mg/kg)?
A: 37.6 ng/mL

Q: What about the concentration at 2 hour (dose 0.2 mg/kg) of the same compound?
A: 29.1 ng/mL

Q: What about the concentration at 4 hour (dose 0.2 mg/kg) of the same compound?
A: 6 ng/mL

Q: And the concentration at 7 hour (dose 0.2 mg/kg)?
A: < 1 ng/mL

Q: What about the concentration at 24 hour (dose 0.2 mg/kg) of the same compound?
A: < 1 ng/mL

Q: And the AUC(0-t) (0.1 mg/kg)?
A: 48.3 ng·h/mL

Q: What about the C0 (0.1 mg/kg) of the same compound?
A: 314 ng/mL

Q: And the MRT inf (0.1 mg/kg)?
A: 0.873 h

Q: What about the clearance (0.1 mg/kg) of the same compound?
A: 32.9 mL/min/kg

Q: And the half-life (0.1 mg/kg)?
A: 0.857 h

Q: What about the AUC(0-t) (0.2 mg/kg) of the same compound?
A: 119 ng·h/mL

Q: And the C0 (0.2 mg/kg)?
A: 450 ng/mL

Q: And the MRT inf (0.2 mg/kg)?
A: 2.93 h

Q: And the clearance (0.2 mg/kg)?
A: 21.5 mL/min/kg

Q: And the half-life (0.2 mg/kg)?
A: 2.29 h

Q: And the Vd (0.1 mg/kg, 0.1 mg/kg, read-out: Vss)?
A: 1.73 L/kg

Q: And the Vd (0.1 mg/kg, 0.1 mg/kg, read-out: Vz)?
A: 2.44 L/kg

Q: What about the Vd (0.2 mg/kg, 0.2 mg/kg, read-out: Vss) of the same compound?
A: 2.77 L/kg

Q: And the Vd (0.2 mg/kg, 0.2 mg/kg, read-out: Vz)?
A: 3.25 L/kg
